The record followed here is PMC11198769, “Enhancement of transcription efficiency by TAR-Tat system increases the functional expression of human olfactory receptors” (PLOS ONE, 2024).

What all share (experiment): Comprehensive analysis (screening) of hORs against n-hexanal
Holding throughout (assay type): cell-based

One test addresses T1, OR2B3 (Homo sapiens, UniProt O76000).
T1 construct: Lucy tag (N); FLAG (N); Rho tag (N); expressed in transfected cells; host or cells: Flp-In T-REx-293 cells stably expressing RTP1S, Gαolf and Ric8-b
T1 sequence (O76000 1-313): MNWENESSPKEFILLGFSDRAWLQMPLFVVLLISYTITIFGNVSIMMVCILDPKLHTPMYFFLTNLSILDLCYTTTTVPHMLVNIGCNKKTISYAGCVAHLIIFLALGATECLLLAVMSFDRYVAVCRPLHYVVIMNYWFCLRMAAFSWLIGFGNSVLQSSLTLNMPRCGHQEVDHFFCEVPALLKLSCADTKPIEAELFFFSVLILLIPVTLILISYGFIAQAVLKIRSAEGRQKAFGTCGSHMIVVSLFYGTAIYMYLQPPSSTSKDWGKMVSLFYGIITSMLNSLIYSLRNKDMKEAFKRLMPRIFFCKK
The following applies: OR2B3, 500 μM n-hexanal, with the TAR-Tat system (hOR/pHEK), n = 1. The method, then: (§1) Transfection was performed as described in the “hOR assay,” but 12.5 ng of 379 hOR plasmids (hOR/pBApo and hOR/pHEK) was transfected with the 12.5 ng pGlosensor^TM-22F cAMP biosensor plasmid (Promega) in 384 plates per well. After loading the GloSensor cAMP substrate and preincubation, the assay buffer was added (30 μL/well). After 10 min of equilibration, luminescence was measured (L0). Then, 50 mM n-hexanal, which was diluted with 10% DMSO/assay buffer, was added (4.7 μL/well). After 9 min, luminescence was measured (L9min). All the L9min values were subtracted by the L0 value (ΔL).

The target in a further test is T2, OR2J3 (Homo sapiens, UniProt O76001).
T2 construct: Lucy tag (N); FLAG (N); Rho tag (N); expressed in transfected cells; host or cells: Flp-In T-REx-293 cells stably expressing RTP1S, Gαolf and Ric8-b
T2 sequence (O76001 1-311): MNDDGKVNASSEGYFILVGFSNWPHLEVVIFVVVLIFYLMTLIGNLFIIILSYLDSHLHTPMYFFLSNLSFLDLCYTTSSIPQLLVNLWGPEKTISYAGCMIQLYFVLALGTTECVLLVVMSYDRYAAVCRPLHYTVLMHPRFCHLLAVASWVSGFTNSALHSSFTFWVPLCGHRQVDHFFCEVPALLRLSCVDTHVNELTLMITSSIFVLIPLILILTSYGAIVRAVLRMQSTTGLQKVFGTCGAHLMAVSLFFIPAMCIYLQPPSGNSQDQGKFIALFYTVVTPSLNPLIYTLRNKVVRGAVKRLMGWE
The following applies: OR2J3, 500 μM n-hexanal, n = 1. The method, then:
as §1

The next test addresses T3, OR10A2 (Homo sapiens, UniProt Q9H208).
T3 construct: Lucy tag (N); expressed in transfected cells; host or cells: Flp-In T-REx-293 cells stably expressing RTP1S, Gαolf and Ric8-b
T3 sequence (Q9H208 1-303): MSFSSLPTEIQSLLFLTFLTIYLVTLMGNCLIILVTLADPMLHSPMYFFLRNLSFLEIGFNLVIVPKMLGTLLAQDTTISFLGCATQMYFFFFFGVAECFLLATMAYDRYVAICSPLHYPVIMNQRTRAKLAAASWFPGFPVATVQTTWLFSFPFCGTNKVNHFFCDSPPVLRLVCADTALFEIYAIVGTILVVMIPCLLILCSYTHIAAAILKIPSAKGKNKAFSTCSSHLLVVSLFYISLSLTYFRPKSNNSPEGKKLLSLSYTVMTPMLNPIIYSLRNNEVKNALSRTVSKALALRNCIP
The following applies: OR10A2, 500 μM n-hexanal, with the TAR-Tat system (hOR/pHEK), n = 1. The method, then: as §1

For another test, the target named is T4, OR10H3 (Homo sapiens, UniProt O60404).
T4 construct: Lucy tag (N); expressed in transfected cells; host or cells: Flp-In T-REx-293 cells stably expressing RTP1S, Gαolf and Ric8-b
T4 sequence (O60404 1-316): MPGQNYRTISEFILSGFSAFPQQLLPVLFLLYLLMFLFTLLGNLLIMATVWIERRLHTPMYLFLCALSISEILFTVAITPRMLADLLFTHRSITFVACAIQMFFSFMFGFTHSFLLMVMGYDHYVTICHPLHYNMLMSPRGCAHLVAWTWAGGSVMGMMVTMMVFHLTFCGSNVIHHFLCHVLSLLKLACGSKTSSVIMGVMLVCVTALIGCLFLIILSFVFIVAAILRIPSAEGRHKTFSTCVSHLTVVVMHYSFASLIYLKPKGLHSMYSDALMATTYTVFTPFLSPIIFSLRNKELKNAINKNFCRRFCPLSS
Particulars: OR10H3, 500 μM n-hexanal, with the TAR-Tat system (hOR/pHEK), n = 1. The method, then:
as §1

In the next test the target is T5, OR1A1 (Homo sapiens, UniProt Q9P1Q5).
T5 construct: Lucy tag (N); FLAG (N); Rho tag (N); expressed in transfected cells; host or cells: Flp-In T-REx-293 cells stably expressing RTP1S, Gαolf and Ric8-b
T5 sequence (Q9P1Q5 1-309): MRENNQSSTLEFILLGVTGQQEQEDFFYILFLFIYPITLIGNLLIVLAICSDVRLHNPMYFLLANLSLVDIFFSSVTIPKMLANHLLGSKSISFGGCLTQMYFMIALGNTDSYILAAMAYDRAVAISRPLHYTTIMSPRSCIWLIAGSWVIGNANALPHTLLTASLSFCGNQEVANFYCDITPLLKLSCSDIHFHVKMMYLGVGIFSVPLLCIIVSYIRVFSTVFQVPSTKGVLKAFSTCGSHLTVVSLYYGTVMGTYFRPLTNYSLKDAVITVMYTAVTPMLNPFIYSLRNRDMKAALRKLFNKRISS
The following applies: OR1A1, 500 μM n-hexanal, n = 1. The method, then:
as §1

The target of a further test is T6, OR5K1 (Homo sapiens, UniProt Q8NHB7).
T6 construct: Lucy tag (N); FLAG (N); Rho tag (N); expressed in transfected cells; host or cells: Flp-In T-REx-293 cells stably expressing RTP1S, Gαolf and Ric8-b
T6 sequence (Q8NHB7 1-308): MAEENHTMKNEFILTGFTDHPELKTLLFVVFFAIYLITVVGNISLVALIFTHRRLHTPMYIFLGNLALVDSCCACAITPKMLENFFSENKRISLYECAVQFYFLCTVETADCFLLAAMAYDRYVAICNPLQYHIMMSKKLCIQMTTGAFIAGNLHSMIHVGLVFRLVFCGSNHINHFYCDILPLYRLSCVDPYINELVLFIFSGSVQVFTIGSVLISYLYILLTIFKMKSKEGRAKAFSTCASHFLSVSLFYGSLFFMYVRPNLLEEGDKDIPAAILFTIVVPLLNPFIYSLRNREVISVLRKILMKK
Particulars: OR5K1, 500 μM n-hexanal, with the TAR-Tat system (hOR/pHEK), n = 1. The method, then: as §1

Setting [1] is: with the TAR-Tat system (hOR/pHEK).
[2] abbreviates: without the TAR-Tat system (control plasmid).

Some results are limits rather than exact numbers.

As for `CCCCCC=O` [n-hexanal], the “response value (ΔL)” value is listed as above 500 on OR2B3; 1580 on OR2J3 (setting [1]); 549 on OR2J3 (setting [2]); above 500 on OR10A2; above 500 on OR10H3; 6675 on OR1A1 (setting [1]). The “response value (ΔL)” value on OR1A1 (setting [2]) is 974; at OR5K1, above 500.
